Test results published in patent US12245562B2, “System for rapid, robust, and efficient in vitro mass propagation of Miscanthus x giganteus” (Delaware State University, priority 2017, dated 2025).
Structures can show the parent of a compound that is named as a salt.

Test system: endophytic fungi
Experiment: control of endophyte growth in in vitro shoot culture media
Type: cell-based
Details: 54 μM in DSIM culture medium of Miscanthus x giganteus; compared with vancomycin hydrochloride 0, 13.5, 27, 41.5 μM and tetracycline hydrochloride 20.8 or 52 μM

CN[C@H](CC(C)C)C(=O)N[C@H]1C(=O)N[C@@H](CC(N)=O)C(=O)N[C@H]2C(=O)N[C@H]3C(=O)N[C@H](C(=O)N[C@H](C(=O)O)c4cc(O)cc(O)c4-c4cc3ccc4O)[C@H](O)c3ccc(c(Cl)c3)Oc3cc2cc(c3O[C@@H]2O[C@H](CO)[C@@H](O)[C@H](O)[C@H]2O[C@H]2C[C@](C)(N)[C@H](O)[C@H](C)O2)Oc2ccc(cc2Cl)[C@H]1O [vancomycin, vancomycin hydrochloride]
controlling the growth of endophytic fungi in the culture media: more effective
